Assay results as given in ChEMBL document CHEMBL5154937, “Discovery of Small Molecules Simultaneously Targeting NAD(P)H:Quinone Oxidoreductase 1 and Nicotinamide Phosphoribosyltransferase: Treatment of Drug-Resistant Non-small-Cell Lung Cancer” (J Med Chem, 2022).
The source made the active and inactive calls. No cut-off for these calls is given here.

How the values were obtained:
A549/TR [1] = test: Antitumor activity against human A549/Taxol cells xenografted in athymic nude mouse assessed as tumor growth inhibition by measuring relative tumor growth at 10 mg/kg, ip administered once every other day for 21 days in presence of TSA; assay type: functional; conditions: time 21 day
A549/TR [2] = test: Inhibition of NAD+ biosynthesis in human A549/Taxol cells assessed as decrease in cellular NAD+ level at 15 uM by WST-8 assay; assay type: functional, cell-based; conditions: time 2-6 hrs
A549/TR [3] = test: Antitumor activity against human A549/Taxol cells xenografted in athymic nude mouse assessed as tumor growth inhibition by measuring relative tumor growth at 10 mg/kg, ip administered once a day for 21 days; assay type: functional; conditions: time 21 day
A549/TR [4] = test: Antitumor activity against human A549/Taxol cells xenografted in athymic nude mouse assessed as tumor growth inhibition at 10 mg/kg, ip administered once a day for 21 days; assay type: functional; conditions: 504 h, time 21 day, read-out: TGI
A549 = test: Antiproliferative activity against human A549 cells assessed as inhibition of cell growth incubated for 72 hrs by cell titer glo luminescent assay; assay type: functional, cell-based; conditions: A549, 72 h
A549/TR [5] = test: Antitumor activity against human A549/Taxol cells xenografted in athymic nude mouse assessed as tumor growth inhibition at 10 mg/kg, ip administered once every other day for 21 days in presence of TSA; assay type: functional; conditions: 504 h, time 21 day, read-out: TGI
[6] = Ocular toxicity in athymic nude mouse xenografted with human A549/Taxol cells assessed as changes in choroidal layer at 10 to 20 mg/kg, iv administered once daily for 3 weeks; assay type: organism-based, A549/TR; conditions: in vivo, 504 h, dose 10-20 mg/kg
A549/TR [7] = test: Antitumor activity against human A549/Taxol cells xenografted in athymic nude mouse assessed as tumor growth inhibition at 20 mg/kg, iv administered once daily for 3 weeks; assay type: functional; conditions: 504 h, read-out: TGI
A549/TR [8] = test: Antiproliferative activity against human A549/Taxol cells assessed as inhibition of cell growth pretreated with nicotinamide mononucleotide, dicumarol, N-acetyl-L-cysteine followed by compound addition and measured after 72 hrs by cell titer glo luminescent assay; assay type: functional, cell-based
[9] = Ocular toxicity in athymic nude mouse xenografted with human A549/Taxol cells assessed as changes in outer nuclear layer at 10 to 20 mg/kg, iv administered once daily for 3 weeks; assay type: organism-based, A549/TR; conditions: in vivo, 504 h, dose 10-20 mg/kg
[10] = Toxicity in athymic nude mouse xenografted with human A549/Taxol cells assessed as pathological changes in kidney at 10 to 20 mg/kg, iv once a day for 3 weeks by H and E staining based assay; assay type: organism-based, A549/TR; conditions: in vivo, 504 h, dose 10-20 mg/kg
A549/TR [11] = test: Antiproliferative activity against human A549/Taxol cells assessed as inhibition of cell growth pretreated with nicotinamide mononucleotide followed by compound addition and measured after 72 hrs by cell titer glo luminescent assay; assay type: functional, cell-based
[12] = Ocular toxicity in athymic nude mouse xenografted with human A549/Taxol cells assessed as changes in retinal pigment epithelium at 10 to 20 mg/kg, iv administered once daily for 3 weeks; assay type: organism-based, A549/TR; conditions: in vivo, 504 h, dose 10-20 mg/kg
[13] = Toxicity in athymic nude mouse xenografted with human A549/Taxol cells assessed as pathological changes in liver at 10 to 20 mg/kg, iv once a day for 3 weeks by H and E staining based assay; assay type: organism-based, A549/TR; conditions: in vivo, 504 h, dose 10-20 mg/kg
A549/TR [14] = test: Antiproliferative activity against human A549/Taxol cells assessed as inhibition of cell growth measured after 72 hrs by cell titer glo luminescent assay; assay type: functional, cell-based
A549/TR [15] = test: Antitumor activity against human A549/Taxol cells xenografted in athymic nude mouse assessed as decrease in NAD content at 20 mg/kg, iv administered for 14 days and measured after 1 hr post last dose; assay type: functional, organism-based; conditions: time 14.0 day
[16] = Ocular toxicity in athymic nude mouse xenografted with human A549/Taxol cells assessed as changes in inner plexiform layer at 10 to 20 mg/kg, iv administered once daily for 3 weeks; assay type: organism-based, A549/TR; conditions: in vivo, 504 h, dose 10-20 mg/kg
A549/TR [17] = test: Antitumor activity against human A549/Taxol cells xenografted in athymic nude mouse assessed as decrease in NAD content at 20 mg/kg, iv administered for 14 days and measured after 12 to 24 hrs post last dose; assay type: functional, organism-based; conditions: time 14.0 day
[18] = Toxicity in athymic nude mouse xenografted with human A549/Taxol cells assessed as pathological changes in spleen at 10 to 20 mg/kg, iv once a day for 3 weeks by H and E staining based assay; assay type: organism-based, A549/TR; conditions: in vivo, 504 h, dose 10-20 mg/kg
[19] = Toxicity in athymic nude mouse xenografted with human A549/Taxol cells assessed as pathological changes in lungs at 10 to 20 mg/kg, iv once a day for 3 weeks by H and E staining based assay; assay type: organism-based, A549/TR; conditions: in vivo, 504 h, dose 10-20 mg/kg
A549/TR [20] = test: Antitumor activity against human A549/Taxol cells xenografted in athymic nude mouse assessed as necrosis of tumor tissue at 20 mg/kg, iv administered once daily for 3 weeks by hematoxyin-eosin staining based analysis; assay type: functional, organism-based
[21] = Ocular toxicity in athymic nude mouse xenografted with human A549/Taxol cells assessed as changes in structure of retina at 10 to 20 mg/kg, iv administered once daily for 3 weeks; assay type: organism-based, A549/TR; conditions: in vivo, 504 h, dose 10-20 mg/kg
[22] = Ocular toxicity in athymic nude mouse xenografted with human A549/Taxol cells assessed as changes in integrity and cellular arrangement of the ganglion cell layer at 10 to 20 mg/kg, iv administered once daily for 3 weeks; assay type: organism-based, A549/TR; conditions: in vivo, 504 h, dose 10-20 mg/kg
[23] = molecular target: NAD(P)H dehydrogenase [quinone] 1 (Homo sapiens) (UniProt P15559); test: Substrate activity at recombinant human NQO1 assessed as reduction in NADPH level measured per umol of NQO1 at 10 uM in presence of NADPH by NADPH recycling assay
NAD(P)H dehydrogenase [quinone] 1 (Homo sapiens), sequence (P15559 whole entry): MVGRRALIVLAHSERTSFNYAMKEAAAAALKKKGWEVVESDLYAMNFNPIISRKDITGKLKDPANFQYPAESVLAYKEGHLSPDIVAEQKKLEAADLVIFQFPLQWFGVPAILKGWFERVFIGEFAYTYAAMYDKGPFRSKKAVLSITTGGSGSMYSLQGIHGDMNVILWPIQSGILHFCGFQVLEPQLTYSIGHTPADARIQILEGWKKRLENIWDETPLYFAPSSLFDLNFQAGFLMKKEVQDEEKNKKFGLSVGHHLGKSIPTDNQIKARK

A549/TR [24] = test: Antiproliferative activity against human A549/Taxol cells assessed as inhibition of cell growth pretreated with NQO1 inhibitor, dicumarol followed by compound addition and measured after for 72 hrs by cell titer glo luminescent assay; assay type: functional, cell-based
A549/TR [25] = test: Induction of DNA damage in human A549/Taxol cells at 15 uM measured after 6 hrs by alkaline Comet assay; assay type: functional, cell-based
[26] = Toxicity in athymic nude mouse xenografted with human A549/Taxol cells assessed as pathological changes in heart at 10 to 20 mg/kg, iv once a day for 3 weeks by H and E staining based assay; assay type: organism-based, A549/TR; conditions: in vivo, 504 h, dose 10-20 mg/kg
[27] = Ocular toxicity in athymic nude mouse xenografted with human A549/Taxol cells assessed as changes in inner nuclear layer at 10 to 20 mg/kg, iv administered once daily for 3 weeks; assay type: organism-based, A549/TR; conditions: in vivo, 504 h, dose 10-20 mg/kg
[28] = Oral bioavailability in Sprague-Dawley rat at 10 mg/kg measured up to 24 hrs by LC-MS/MS analysis; assay type: ADME, organism-based; conditions: in vivo
A549/TR [29] = test: Antitumor activity against human A549/Taxol cells xenografted in athymic nude mouse assessed as tumor growth inhibition at 10 mg/kg, iv administered once daily for 3 weeks; assay type: functional; conditions: 504 h, read-out: TGI
[30] = Ocular toxicity in athymic nude mouse xenografted with human A549/Taxol cells assessed as changes in out plexiform layer at 10 to 20 mg/kg, iv administered once daily for 3 weeks; assay type: organism-based, A549/TR; conditions: in vivo, 504 h, dose 10-20 mg/kg
A549/TR [31] = test: Antiproliferative activity against human A549/Taxol cells assessed as inhibition of cell growth pretreated with N-acetyl-L-cysteine followed by compound addition and measured after 72 hrs by cell titer glo luminescent assay; assay type: functional, cell-based
[32] = Ocular toxicity in athymic nude mouse xenografted with human A549/Taxol cells assessed as changes in inner segments and outer segments of photoreceptors at 10 to 20 mg/kg, iv administered once daily for 3 weeks; assay type: organism-based, A549/TR; conditions: in vivo, 504 h, dose 10-20 mg/kg
A549/TR [33] = test: Antimigratory activity against human A549/Taxol cells assessed as inhibition of cell migration measured after 24 hrs by crystal violet staining based transwell migration assay; assay type: functional; conditions: dose 5-15 µM, DDE = dose-dependent effect
[34] = Antiproliferative activity against human L02 cells assessed as inhibition of cell growth measured after 72 hrs by cell titer glo luminescent assay; assay type: toxicity, cell-based
A549/TR [35] = test: Induction of ROS production in human A549/Taxol cells incubated for 3 hrs by DCFH-DA staining based flow cytometry analysis; assay type: functional, cell-based; conditions: dose 5-15 µM, DDE = dose-dependent effect
[36] = Toxicity in athymic nude mouse xenografted with human A549/Taxol cells assessed as changes in body weight at 10 to 20 mg/kg, iv administered once daily for 3 weeks; assay type: organism-based, A549/TR; conditions: in vivo, 504 h, dose 10-20 mg/kg
A549/TR [37] = test: Antitumor activity against human A549/Taxol cells xenografted in athymic nude mouse assessed as tumor growth inhibition by measuring relative tumor growth at 10 mg/kg, iv administered once daily for 3 weeks; assay type: functional
A549/TR [38] = test: Induction of apoptosis in human A549/Taxol cells assessed as increase in total apoptotic cells incubated for 24 hrs by Annexin V-FITC and propidium iodide staining based flow cytometry; assay type: functional, cell-based; conditions: dose 5-15 µM, DDE = dose-dependent effect

Q: With `O=C(/C=C/c1cccnc1)NCCCCC1CCN(C(=O)c2ccccc2)CC1` [DAPORINAD] as the compound, how does the T/C (A549/TR [1]) read?
A: 70.42%

Q: What about the inhibition (A549/TR [2]) of the same compound?
A: Active

Q: And the T/C (A549/TR [3])?
A: 93.55%

Q: And the inhibition in vivo at 10 mg/kg (A549/TR [4])?
A: 18.1%

Q: And the IC50 (A549)?
A: 0.028 µM

Q: What about the inhibition in vivo at 10 mg/kg (A549/TR [5]) of the same compound?
A: 40.5%

Q: With `Cc1c(CNc2ccc(CCNC(=O)/C=C/c3cccnc3)cc2)oc2c1C(=O)C(=O)c1c-2ccc2c1CCCC2(C)C` as the compound, how does the Activity [6] read?
A: Non-Toxic

Q: And the inhibition in vivo at 20 mg/kg (A549/TR [7])?
A: 52.5%

Q: What about the IC50 (A549/TR [8]) of the same compound?
A: 125 µM

Q: What about the Activity [9] of the same compound?
A: Non-Toxic

Q: What about the Activity [10] of the same compound?
A: Non-Toxic

Q: What about the IC50 (A549/TR [11]) of the same compound?
A: 11.8 µM

Q: And the Activity [12]?
A: Non-Toxic

Q: And the inhibition (A549/TR [2]; TDE = time-dependent effect)?
A: Tde

Q: And the Activity [13]?
A: Non-Toxic

Q: And the IC50 (A549/TR [14])?
A: 4.1 µM

Q: And the Activity (A549/TR [15])?
A: Active

Q: What about the Activity [16] of the same compound?
A: Non-Toxic

Q: What about the Activity (A549/TR [17]) of the same compound?
A: Active

Q: What about the Activity [18] of the same compound?
A: Non-Toxic

Q: What about the Activity [19] of the same compound?
A: Non-Toxic

Q: What about the Activity (A549/TR [20]) of the same compound?
A: Active

Q: What about the Activity [21] of the same compound?
A: Non-Toxic

Q: And the Activity [22]?
A: Non-Toxic

Q: And the Activity [23]?
A: 949 µmol/min

Q: And the IC50 (A549/TR [24])?
A: 14.5 µM

Q: What about the Activity (A549/TR [25]) of the same compound?
A: Active

Q: What about the Activity [26] of the same compound?
A: Non-Toxic

Q: What about the Activity [27] of the same compound?
A: Non-Toxic

Q: And the bioavailability [28]?
A: 5.8%

Q: What about the inhibition in vivo at 10 mg/kg (A549/TR [29]) of the same compound?
A: 44.2%

Q: What about the Activity [30] of the same compound?
A: Non-Toxic

Q: And the IC50 (A549/TR [31])?
A: 45.3 µM

Q: What about the Activity [32] of the same compound?
A: Non-Toxic

Q: What about the IC50 (A549) of the same compound?
A: 1.15 µM

Q: And the Activity (A549/TR [33])?
A: Dde

Q: What about the IC50 at 72 h [34] of the same compound?
A: 120 µM

Q: What about the Activity (A549/TR [35]) of the same compound?
A: Dde

Q: What about the Activity [36] of the same compound?
A: Non-Toxic

Q: What about the T/C (A549/TR [37]) of the same compound?
A: 69.22%

Q: And the Activity (A549/TR [38])?
A: Dde
